# Laboratory results from US20230393140A1, “BINDING ASSAYS INVOLVING A PLURALITY OF SYNTHETIC COMPOUNDS, TARGETS, AND COUNTER TARGETS” (SRI International, priority 2020, published 2023).
# Where two headings read alike, the source gives them in different places. Numbered stars: 1 amine (or outer) side, 2 acyl side, 3 side chain; on linkers, the order of the positions; unused ones are H or OH. Square brackets hold non-standard residues; d marks the D form. Peptide text beside a SMILES is read from it. * marks the point of attachment. 5FAM = O=C1OC2(c3ccc(O)cc3Oc3cc(O)ccc32)c2ccc(C(=O)*)cc21; NHCH2C6H4(4-CH2CONH2) = NC(=O)Cc1ccc(CN*)cc1; X1 = O=C(Cc1ccc(CN[*:1])cc1)[*:2]
# Target: T1, IL-6 (Homo sapiens, UniProt P05231)
# T1 construct: purchased Creative Biomart IL6-12H
# Test: MST binding affinity of resynthesized NNP hits to IL-6
# Protocol: Hit binding affinity to various targets were determined using Microscale Thermophoresis (MST). MST experiments were performed on a Monolith NT.115pico (NanoTemper Technologies GmbH, Munich, Germany). Measurements were performed at room temperature, in triplicate with incubation periods of 15, 30 and 45 minutes. […] Targets were labeled using Nanotemper Monolith 2nd Generation Protein Labeling Kits. RED-MALEIMIDE (Maleimide-647-dye) labeling kit was used for K-Ras and RED-NHS (NHS-647-dye) labeling kit was used for IL-6, IL-6R, TNFα and ASGPR. The buffer for the ASGPR contained 20 mM HEPES pH 7.4, 150 mM NaCl, 10 mM MgCl2, 2 mM CaCl2, 0.05% Pluronic F-127, and 1 mM DTT; for IL-6 contained 20 mM HEPES pH 7.4, 150 mM KCl, 10 mM MgCl2, and 0.1% Pluronic F-127; for the soluble IL-6 receptor 20 mM HEPES pH 7.4, 150 mM NaCl, 10 mM MgCl2, and 0.05% Tween-20; for K-Ras 20 mM HEPES pH 7.4, 150 mM NaCl, 10 mM MgCl2, 0.05% Tween-20 and 1 mM DTT; for TNFα 10 mM HEPES pH 7.4, 150 mM NaCl, 10 mM MgCl2, 0.05% Polysorbate-20. Triplicate data was analyzed using MO.AffinityAnalysis software (NanoTemper Technologies GmbH).
# [1] = read-out: KD (nM) [95% conf. int], NNP2 library hit, target IL-6, one-site binding model
# [2] = NNP2 library hit, target IL-6, one-site binding model
SMILES,Kd [1] [nM],Kd [2] [nM]
CC(C)C[C@H](NC(=O)[C@@H](CCCNC(=N)N)NC(=O)CNC(=O)Cc1ccc(CNC(=O)[C@H](Cc2ccccc2)NC(=O)[C@@H](Cc2ccccc2)NC(=O)[C@@H](CO)NC(=O)c2ccc3c(c2)C(=O)OC32c3ccc(O)cc3Oc3cc(O)ccc32)cc1)C(=O)NCc1ccc(CC(=O)N[C@H](CC(C)C)C(=O)N[C@H](CCCCN)C(=O)N[C@@H](CC(C)C)C(=O)NCc2ccc(CC(=O)N[C@H](Cc3c[nH]c4ccccc34)C(=O)N[C@H](CCCNC(=N)N)C(=O)N[C@@H](CC(C)C)C(=O)NCc3ccc(CC(=O)N[C@H](C)C(=O)N[C@H](CCCCN)C(=O)N[C@@H](Cc4ccccc4)C(=O)NCc4ccc(CC(=O)N[C@H](Cc5c[nH]cn5)C(=O)N[C@H](CCCCN)C(=O)N[C@@H](Cc5ccccc5)C(=O)NCc5ccc(CC(=O)N[C@H](C)C(=O)N[C@H](CCCNC(=N)N)C(=O)N[C@@H](CC(C)C)C(=O)NCc6ccc(CC(=O)N[C@@H](C(=O)N[C@H](Cc7c[nH]cn7)C(=O)N[C@@H](CC(C)C)C(=O)NCc7ccc(CC(=O)N[C@H](Cc8ccccc8)C(=O)N[C@H](CCCNC(=N)N)C(=O)NCC(=O)NCc8ccc(CC(N)=O)cc8)cc7)[C@H](C)O)cc6)cc5)cc4)cc3)cc2)cc1 [IL6-65-5] (5FAM-[dS][dF]F[X1]G[dR]L[X1][dL][dK]L[X1][dW][dR]L[X1][dA][dK]F[X1][dH][dK]F[X1][dA][dR]L[X1][dT][dH]L[X1][dF][dR]G-{NHCH2C6H4(4-CH2CONH2)}),33,
CC(C)C[C@H](NC(=O)[C@@H](CCCNC(=N)N)NC(=O)[C@@H](Cc1c[nH]c2ccccc12)NC(=O)Cc1ccc(CNC(=O)[C@H](Cc2ccccc2)NC(=O)[C@@H](CO)NC(=O)[C@@H](CCCNC(=N)N)NC(=O)Cc2ccc(CNC(=O)[C@@H](NC(=O)[C@@H](CO)NC(=O)[C@@H](Cc3ccc(O)cc3)NC(=O)Cc3ccc(CNC(=O)[C@H](CC(C)C)NC(=O)[C@@H](CC(C)C)NC(=O)[C@@H](Cc4ccc(O)cc4)NC(=O)c4ccc5c(c4)C(=O)OC54c5ccc(O)cc5Oc5cc(O)ccc54)cc3)C(C)C)cc2)cc1)C(=O)NCc1ccc(CC(=O)N[C@H](Cc2c[nH]c3ccccc23)C(=O)N[C@H](CCCNC(=N)N)C(=O)N[C@H](C(=O)NCc2ccc(CC(=O)N[C@H](CCCNC(=N)N)C(=O)N[C@H](Cc3ccc(O)cc3)C(=O)N[C@@H](CC(C)C)C(=O)NCc3ccc(CC(=O)N[C@H](CCC(=O)O)C(=O)N[C@H](Cc4ccc(O)cc4)C(=O)N[C@H](C(=O)NCc4ccc(CC(=O)N[C@H](CCCCN)C(=O)N[C@H](Cc5ccccc5)C(=O)N[C@@H](Cc5ccccc5)C(=O)NCc5ccc(CC(=O)N[C@H](Cc6ccc(O)cc6)C(=O)N[C@H](CCCNC(=N)N)C(=O)N[C@@H](Cc6ccccc6)C(=O)NCc6ccc(CC(N)=O)cc6)cc5)cc4)C(C)C)cc3)cc2)C(C)C)cc1 [IL6-65-1] (5FAM-[dY][dL]L[X1][dY][dS]V[X1][dR][dS]F[X1][dW][dR]L[X1][dW][dR]V[X1][dR][dY]L[X1][dE][dY]V[X1][dK][dF]F[X1][dY][dR]F-{NHCH2C6H4(4-CH2CONH2)}),500,
"CC(C)C[C@H](NC(=O)[C@@H](CC(N)=O)NC(=O)[C@@H](CCCCN)NC(=O)Cc1ccc(CNC(=O)[C@H](C)NC(=O)[C@H](NC(=O)[C@@H](Cc2ccccc2)NC(=O)Cc2ccc(CNC(=O)[C@H](Cc3ccccc3)NC(=O)[C@@H](CCCCN)NC(=O)[C@@H](C)NC(=O)Cc3ccc(CNC(=O)[C@H](C)NC(=O)[C@@H](CCCNC(=N)N)NC(=O)[C@@H](Cc4ccccc4)NC(=O)Cc4ccc(CNC(=O)[C@H](C)NC(=O)[C@@H](CCCCN)NC(=O)[C@H]5CCCN5C(=O)Cc5ccc(CNC(=O)[C@H](Cc6ccccc6)NC(=O)[C@@H](C)NC(=O)[C@@H](C)NC(=O)Cc6ccc(CNC(=O)[C@H](Cc7ccccc7)NC(=O)[C@@H](CC(C)C)NC(=O)[C@@H](Cc7c[nH]cn7)NC(=O)c7ccc8c(c7)C(=O)OC87c8ccc(O)cc8Oc8cc(O)ccc87)cc6)cc5)cc4)cc3)cc2)[C@H](C)O)cc1)C(=O)NCc1ccc(CC(=O)N[C@@H](C(=O)N[C@H](Cc2c[nH]cn2)C(=O)N[C@@H](CC(C)C)C(=O)NCc2ccc(CC(=O)N[C@H](Cc3ccccc3)C(=O)N[C@H](CCCCN)C(=O)NCC(=O)NCc3ccc(CC(N)=O)cc3)cc2)[C@H](C)O)cc1 [IL6-65-2, Fluorescein-(D)His-(D)Leu-(L)Phe-PAM-(D)Ala-(D)Ala-(L)Phe-PAM-(D)Pro-(D)Lys-(L)Ala-PAM-(D)Phe-(D)Arg-(L)Ala-PAM-(D)Ala-(D)Lys-(L)Phe-PAM-(D)Phe-(D)Thr-(L)Ala-PAM-(D)Lys-(D)Asn- (L)Leu-PAM-(D)Thr-(D)His-(L)Leu-PAM-(D)Phe-(D)Lys-Gly-PAM] (5FAM-[dH][dL]F[X1][dA][dA]F[X1][dP][dK]A[X1][dF][dR]A[X1][dA][dK]F[X1][dF][dT]A[X1][dK][dN]L[X1][dT][dH]L[X1][dF][dK]G-{NHCH2C6H4(4-CH2CONH2)})",,400
"CC(C)C[C@H](NC(=O)[C@@H](CCCNC(=N)N)NC(=O)CNC(=O)Cc1ccc(CNC(=O)[C@H](CC(C)C)NC(=O)[C@@H](CC(C)C)NC(=O)[C@@H](Cc2ccc(O)cc2)NC(=O)c2ccc3c(c2)C(=O)OC32c3ccc(O)cc3Oc3cc(O)ccc32)cc1)C(=O)NCc1ccc(CC(=O)N[C@H](CCCNC(=N)N)C(=O)N[C@H](CO)C(=O)N[C@@H](Cc2ccccc2)C(=O)NCc2ccc(CC(=O)N3CCC[C@@H]3C(=O)N[C@H](CCCNC(=N)N)C(=O)N[C@H](C(=O)NCc3ccc(CC(=O)N[C@H](Cc4c[nH]c5ccccc45)C(=O)N[C@H](CCCNC(=N)N)C(=O)N[C@H](C(=O)NCc4ccc(CC(=O)N[C@H](CC(N)=O)C(=O)N[C@H](CCCNC(=N)N)C(=O)N[C@@H](Cc5ccccc5)C(=O)NCc5ccc(CC(=O)N[C@H](CCC(=O)O)C(=O)N[C@H](Cc6ccc(O)cc6)C(=O)N[C@H](C(=O)NCc6ccc(CC(=O)N7CCC[C@@H]7C(=O)N[C@H](CCCNC(=N)N)C(=O)N[C@@H](C)C(=O)NCc7ccc(CC(=O)N[C@H](Cc8ccc(O)cc8)C(=O)N[C@H](CCCNC(=N)N)C(=O)N[C@@H](Cc8ccccc8)C(=O)NCc8ccc(CC(N)=O)cc8)cc7)cc6)C(C)C)cc5)cc4)C(C)C)cc3)C(C)C)cc2)cc1 [IL6-65-11, Fluorescein-(D)Tyr-(D)Leu-(L)Leu-PAM-Gly-(D)Arg-(L)Leu-PAM-(D)Arg-(D)Ser-(L)Phe-PAM-(D)Pro-(D)Arg-(L)Val-PAM-(D)Trp-(D)Arg-(L)Val-PAM-(D)Asn-(D)Arg-(L)Phe-PAM-(D)Glu-(D)Tyr-(L)Val- PAM-(D)Pro-(D)Arg-(L)Ala-PAM-(D)Tyr-(D)Arg-(L)Phe-PAM] (5FAM-[dY][dL]L[X1]G[dR]L[X1][dR][dS]F[X1][dP][dR]V[X1][dW][dR]V[X1][dN][dR]F[X1][dE][dY]V[X1][dP][dR]A[X1][dY][dR]F-{NHCH2C6H4(4-CH2CONH2)})",25,
"CC(C)C[C@H](NC(=O)[C@@H](CCCCN)NC(=O)[C@@H](Cc1c[nH]cn1)NC(=O)Cc1ccc(CNC(=O)[C@H](CC(C)C)NC(=O)[C@@H](CCCNC(=N)N)NC(=O)[C@@H](Cc2c[nH]c3ccccc23)NC(=O)Cc2ccc(CNC(=O)[C@H](Cc3ccccc3)NC(=O)[C@@H](Cc3ccc(O)cc3)NC(=O)[C@@H](Cc3c[nH]cn3)NC(=O)Cc3ccc(CNC(=O)[C@H](CC(C)C)NC(=O)[C@@H](CCCNC(=N)N)NC(=O)[C@@H](CC(C)C)NC(=O)Cc4ccc(CNC(=O)[C@H](Cc5ccccc5)NC(=O)[C@@H](Cc5c[nH]c6ccccc56)NC(=O)[C@@H](CCCNC(=N)N)NC(=O)c5ccc6c(c5)C(=O)OC65c6ccc(O)cc6Oc6cc(O)ccc65)cc4)cc3)cc2)cc1)C(=O)NCc1ccc(CC(=O)N[C@H](C)C(=O)N[C@H](Cc2ccc(O)cc2)C(=O)NCC(=O)NCc2ccc(CC(=O)N[C@H](Cc3c[nH]cn3)C(=O)N[C@H](CCC(=O)O)C(=O)N[C@@H](CC(C)C)C(=O)NCc3ccc(CC(=O)N4CCC[C@@H]4C(=O)N[C@H](CCCNC(=N)N)C(=O)N[C@@H](C)C(=O)NCc4ccc(CC(=O)N[C@H](Cc5ccccc5)C(=O)N[C@H](CCCCN)C(=O)NCC(=O)NCc5ccc(CC(N)=O)cc5)cc4)cc3)cc2)cc1 [IL6-65-4, Fluorescein-(D)Arg-(D)Trp-(L)Phe-PAM-(D)Leu-(D)Arg-(L)Leu-PAM-(D)His-(D)Tyr-(L)Phe-PAM-(D)Trp-(D)Arg-(L)Leu-PAM-(D)His-(D)Lys-(L)Leu-PAM-(D)Ala-(D)Tyr-Gly-PAM-(D)His-(D)Glu-(L)Leu- PAM-(D)Pro-(D)Arg-(L)Ala-PAM-(D)Phe-(D)Lys-Gly-PAM] (5FAM-[dR][dW]F[X1][dL][dR]L[X1][dH][dY]F[X1][dW][dR]L[X1][dH][dK]L[X1][dA][dY]G[X1][dH][dE]L[X1][dP][dR]A[X1][dF][dK]G-{NHCH2C6H4(4-CH2CONH2)})",,37
